Structures can show the parent of a compound that is named as a salt.
Experiments:
Aβ 1-42 = biological target: T1, Aβ 1-42 (Homo sapiens, UniProt P05067); test: Assay 1 Fluorometric H2O2 assay (peroxide); type: biochemical; conditions: inhibition of H2O2 generation by Aβ with copper
T1 construct: The reaction solutions contained Aβ 1-42 at concentrations
Description: Assay 1. Fluorometric H2O2 Assay
A fluorometric assay was used to test the ability of a test compound to inhibit hydrogen peroxide generation by Aβ in the presence of copper based on dichlorofluoroscein diacetate (DCF; Molecular Probes, Eugene Oreg.). The DCF solution (5 mM) in 100% dimethyl sulphoxide (previously purged with argon for 1 hr at 20° C.) was deacetylated in the presence of 0.025M NaOH for 30 min and neutralised at pH 7.4 to a final concentration of 1 mM. Horseradish peroxidase (HRP) stock solution was prepared to 1 μM at pH 7.4. The reactions were carried out in PBS, pH 7.4 in a 96 well plate (total volume=250 μl/well). The reaction solutions contained Aβ 1-42 at concentrations in the range of 50 nM to 1 μM, copper-glycine chelate (Cu-Gly), was prepared by adding CuCl2 to glycine in the ratio of 1:6 and added to the Aβ in the proportion 2Cu-Gly:1Aβ), reducing agents including dopamine (5 μM) or ascorbic acid, deacetylated DCF 100 μM, and HRP, 0.1 μM. 1-10 μM EDTA or another chelator may also be present as a control for free copper, but was not required for the assay to function. The reaction mixture was incubated at 37 C for 60 min. Catalase (4000 units/ml) and H2O2 (1-2.5 μM) standards in PBS pH 7.4 may be included as positive controls. Fluorescence was recorded using a plate reader with excitation and emission filters at […] respectively. H2O2 concentration may be established by comparing fluorescence with the H2O2 standards. Inhibition of Aβ H2O2 production was assayed by including a given concentration of test compound(s) in the test wells.

[1] = Assay 3(d) test compound cytotoxicity (MTS); type: cell-based; conditions: BL6Jx129sv, mouse, primary cortical neuronal cultures, cortical neurons; for viability at 4 days, 1 µM: read-out: Assay 3(d) Cytotoxicity (% viable at 1 uM); for viability at 4 days, 10 µM: read-out: Assay 3(d) Cytotoxicity (% viable at 10 uM)
Description: Primary Cortical Neuronal Cultures
Cortical cultures were prepared as previously described (White et al., 1998). Embryonic day 14 BL6Jx129sv mouse cortices were removed, dissected free of meninges and dissociated in 0.025% (wt/vol) trypsin. Dissociated cells were plated in 48 well culture plates at a density of 2×10^6 cells/mL in MEM with 25% (vol/vol) FCS and 5% (vol/vol) HS and incubated at 37° C., 2 hrs. Media was then replaced with Neurobasal media (Invitrogen Life Technologies) and B27 supplements (Invitrogen Life Technologies). Cultures were maintained at 37° C. in 5% CO2. Prior to experimentation, the culture medium was replaced with Neurobasal media and B27 minus antioxidants (Invitrogen Life Technologies).
(a) MTS Assay for Cell Viability
Cell viability is determined using the MTS assay. Culture medium is replaced with fresh neurobasal medium plus B27 supplements minus antioxidants. 1/10 volume MTS solution (Cell Titre 96 Aqueous One, Promega Corporation) and incubated at 37° C., 2 hrs. 200 microlitre aliquots are measured with a spectrophotometer at 560 nm.
(d) Assay for Test Compound Cytoxicity
Neuronal cortical cells were cultured for five days as per Assay 2 in NB media and B27 supplement.
On day six the test compounds were added to the neuronal cell cultures in NB media and B27 supplement minus antioxidants.
Test compounds were dissolved in 100% DMSO to a concentration of 2.5 mM (10 mM if excess compound was weighed out per vial—then diluted to 2.5 mM). 2.5 mM stock solution was serially diluted 1 in 10 to give working solutions of 250 uM, 25 uM, 2.5 uM. Test compounds were not added directly to cells, instead they were added to a 48 well ‘Drug Plate’ as comprised below:
Preparation of “Drug Plate”:
• Well 1: 576 ul NB+B27 (no antioxidant)*+24 ul 2.5 uM test compound • Well 2: 576 ul NB+B27 (no antioxidant)+24 ul 25 uM test compound • Well 3: 576 ul NB+B27 (no antioxidant)+24 ul 250 uM test compound • Well 4: 576 ul NB+B27 (no antioxidant)+24 ul 2.5 uM test compound • Well 5: 576 ul NB+B27 (no antioxidant)+24 ul 25 uM test compound • Well 6: 576 ul NB+B27 (no antioxidant)+24 ul 250 uM test compound • Well 7: 576 ul NB+B27 (no antioxidant)+24 ul test compound diluent** • Well 8: 600 ul NB+B27 (no antioxidant)
The Drug Plate was incubated at 37° C. for 15 mins. 200 ul of each well was added in triplicate to the corresponding cell plate. The cell plate was incubated at 37° C., for 4 days, (2 compounds are tested on each plate of cells).
* NB media and B27 (no antioxidants),
** PBT diluent 10% DMSO in NB+B27 (no antioxidants)
On completion of the assay, 1/10 volume MTS was added per well of plate (ie 25 ul/250 ul). The plates were incubated at 37° C. for 2 hrs, and then absorbance was read at 560 nm.

T1 sequence (P05067 672-713 limits assumed): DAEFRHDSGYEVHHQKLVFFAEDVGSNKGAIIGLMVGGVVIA

Question: Which results are given for `Cc1cnc(-n2cnc3c(O)c(Cl)cc(Cl)c3c2=O)s1` [Compound 1082]?
Answer: IC50 (Aβ 1-42): 4500 nM; viability at 4 days, 1 µM [1]: 94%; viability at 4 days, 10 µM [1]: 70%

Question: For `Cn1c(-n2cnc3c(O)c(Cl)cc(Cl)c3c2=O)nc2ccccc21` [Compound 1083], which IC50 (Aβ 1-42) is on record?
Answer: 2300 nM

Question: What about the viability at 4 days, 10 µM [1] of the same compound?
Answer: 97%

Question: What does the source list for `O=c1c2c(Cl)cc(Cl)c(O)c2ncn1N1CCCCC1` [Compound 1086]?
Answer: IC50 (Aβ 1-42): 390 nM; viability at 4 days, 1 µM [1]: 98%; viability at 4 days, 10 µM [1]: 51%

Question: With `O=c1c2c(Cl)cc(Cl)c(O)c2ncn1-c1cccnc1` [Compound 1092] as the compound, how does the IC50 (Aβ 1-42) read?
Answer: 860 nM

Question: What about the viability at 4 days, 1 µM [1] of the same compound?
Answer: 95%

Question: And the viability at 4 days, 10 µM [1]?
Answer: 81%

Question: Which IC50 (Aβ 1-42) does the source give for `COc1ccc(-n2cnc3c(O)c(Cl)cc(Cl)c3c2=O)cn1` [Compound 1093] here?
Answer: 390 nM

Question: And the viability at 4 days, 1 µM [1]?
Answer: 122%

Question: And the viability at 4 days, 10 µM [1]?
Answer: 13%

Question: For `Br.Cc1cccnc1Cn1cnc2c(O)c(Cl)cc(Cl)c2c1=O` [Compound 1098], which IC50 (Aβ 1-42) is on record?
Answer: 440 nM

Question: What about the viability at 4 days, 1 µM [1] of the same compound?
Answer: 99%

Question: What about the viability at 4 days, 10 µM [1] of the same compound?
Answer: 88%

Question: With `Nn1cnc2c(O)c(Cl)cc(Cl)c2c1=O` [Compound 1099, 3-Amino-5,7-dichloro-8-hydroxy-3H-quinazolin-4-one hydrobromide] as the compound, how does the IC50 (Aβ 1-42) read?
Answer: 690 nM

Question: For `Br.CC(C)Cn1cnc2c(O)c(Cl)cc(Cl)c2c1=O` [Compound 1107], which IC50 (Aβ 1-42) is on record?
Answer: 400 nM

Question: What about the viability at 4 days, 1 µM [1] of the same compound?
Answer: 92%

Question: What about the viability at 4 days, 10 µM [1] of the same compound?
Answer: 59%

Question: For `Br.CC(C)n1cnc2c(O)c(Cl)cc(Cl)c2c1=O` [Compound 1108], which IC50 (Aβ 1-42) is on record?
Answer: 250 nM

Question: What about the viability at 4 days, 1 µM [1] of the same compound?
Answer: 100%

Question: And the viability at 4 days, 10 µM [1]?
Answer: 53%

Question: Which IC50 (Aβ 1-42) does the source give for `CCN(CC)CCn1cnc2c(O)c(Cl)cc(Cl)c2c1=O` [Compound 1110] here?
Answer: 460 nM

Question: What about the viability at 4 days, 10 µM [1] of the same compound?
Answer: 77%

Question: Which IC50 (Aβ 1-42) does the source give for `CCCCn1cnc2c(O)c(Cl)cc(Cl)c2c1=O` [Compound 1111] here?
Answer: 320 nM

Question: What about the viability at 4 days, 1 µM [1] of the same compound?
Answer: 93%

Question: What about the viability at 4 days, 10 µM [1] of the same compound?
Answer: 67%

Question: Which IC50 (Aβ 1-42) does the source give for `CC(Br)CCn1cnc2c(O)c(Cl)cc(Cl)c2c1=O` (stereo not drawn) [Compound 1114] here?
Answer: 580 nM

Question: What about the viability at 4 days, 10 µM [1] of the same compound?
Answer: 73%

Question: What does the source list for `CCn1cnc2c(O)c(Cl)cc(Cl)c2c1=O` [Compound 1115]?
Answer: IC50 (Aβ 1-42): 730 nM; viability at 4 days, 1 µM [1]: 101%; viability at 4 days, 10 µM [1]: 73%

Question: For `C/C=C/Cn1cnc2c(O)c(Cl)cc(Cl)c2c1=O` [Compound 1126], which IC50 (Aβ 1-42) is on record?
Answer: 370 nM

Question: Which IC50 (Aβ 1-42) does the source give for `CCn1cnc2c(O)ccc(Cl)c2c1=O` [Compound 1130] here?
Answer: 880 nM

Question: For `CCCn1cnc2c(O)ccc(Cl)c2c1=O` [Compound 1131], which IC50 (Aβ 1-42) is on record?
Answer: 500 nM

Question: With `CN(C)Cc1nc2c(O)c(Cl)cc(Cl)c2c(=O)[nH]1` [Compound 1147] as the compound, how does the IC50 (Aβ 1-42) read?
Answer: 260 nM

Question: Which IC50 (Aβ 1-42) does the source give for `CNCc1nc2c(O)c(Cl)cc(Cl)c2c(=O)n1C` [Compound 1161] here?
Answer: 140 nM
